Columns and labels:
Type in all cases: in vivo
[1] = tested on: velvetleaf (Abutilon theophrasti); assay: Test C greenhouse herbicide test, pre- and postemergence
Outline: (§1)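 Seeds sown in loam–sand blend treated preemergence; plants in peat-based medium sprayed postemergence at 2–18 cm (1- to 4-leaf stage); chemicals in non-phytotoxic solvent with surfactant. Greenhouse 13–15 d, then visual rating versus controls on 0–100 scale (0 no effect, 100 complete control).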

[2] = tested on: galium (catchweed bedstraw, Galium aparine); assay: as above
Outline: as §1

corn (Zea mays) = assay: as above
Outline: as §1

[3] = tested on: foxtail, giant (giant foxtail, Setaria faberii); assay: as above
Outline: as §1

[4] = tested on: johnsongrass (Sorghum halepense); assay: as above
Outline: as §1

[5] = tested on: blackgrass (Alopecurus myosuroides); assay: as above
Outline: as §1

[6] = tested on: barnyardgrass (Echinochloa crus-galli); assay: as above
Outline: as §1

[7] = tested on: nutsedge, yellow (yellow nutsedge, Cyperus esculentus); assay: as above
Outline: as §1

[8] = tested on: crabgrass, large (large crabgrass, Digitaria sanguinalis); assay: as above
Outline: as §1

soybean (Glycine max) = assay: as above
Outline: as §1

[9] = tested on: ryegrass, Italian (Italian ryegrass, Lolium multiflorum); assay: as above
Outline: as §1

[10] = tested on: wheat (winter wheat, Triticum aestivum); assay: as above
Outline: as §1

[11] = tested on: waterhemp_RES2 (ALS & HPPD resistant common waterhemp, Amaranthus rudis); assay: Test E greenhouse herbicide test, postemergence
Outline: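 Seedlings were raised in pots of peat moss and vermiculite medium with starter nutrients until they reached the 1- to 4-leaf stage. They were then treated postemergence and held in a greenhouse for 14–21 d. Finally, response was scored visually on a 0–100 control scale.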

[12] = Postemergence, 31 g ai/ha, 0 to 100 scale (0 no effect, 100 complete control)
[13] = Postemergence, 125 g ai/ha, scale 0 to 100, 0 is no effect, 100 is complete control
[14] = Postemergence, 250 g ai/ha, scale 0 to 100, 0 no effect, 100 complete control, 13 to 15 d
[15] = Preemergence, 31 g ai/ha, scale 0 to 100, 0 is no effect, 100 is complete control
[16] = Preemergence, 62 g ai/ha, scale 0 to 100, 0 is no effect, 100 is complete control
[17] = Preemergence, 125 g ai/ha, scale 0 to 100, 0 is no effect, 100 is complete control
[18] = Preemergence, 250 g ai/ha, scale 0 to 100, 0 no effect, 100 complete control
[19] = postemergence, 62 g ai/ha, scale 0 to 100, 0 no effect, 100 complete control

Cc1ccc2sc(Br)c(-c3c(O)c(C)nn(C)c3=O)c2c1 [Compound 79]
Velvetleaf plant response rating [1, 12]: 75 | Plant response rating, Velvetleaf [1, 13]: 90 | Plant response rating, Velvetleaf [1, 14]: 90 | Plant response rating, Velvetleaf [1, 15]: 80 | Plant response rating, Velvetleaf [1, 16]: 85 | Plant response rating, Velvetleaf [1, 17]: 95 | Velvetleaf plant response rating [1, 18]: 95 | Velvetleaf plant response rating [1, 19]: 85 | Galium plant response rating [2, 12]: 95 | Plant response rating, Galium [2, 13]: 95 | Plant response rating, Galium [2, 14]: 95 | Plant response rating, Galium [2, 15]: 95 | Plant response rating, Galium [2, 16]: 95 | Plant response rating, Galium [2, 17]: 95 | Galium plant response rating [2, 18]: 98 | Galium plant response rating [2, 19]: 95 | Corn plant response rating (corn (Zea mays); [12]): 0 | Plant response rating, Corn (corn (Zea mays); [13]): 25 | Plant response rating, Corn (corn (Zea mays); [14]): 35 | Plant response rating, Corn (corn (Zea mays); [15]): 0 | Plant response rating, Corn (corn (Zea mays); [16]): 0 | Plant response rating, Corn (corn (Zea mays); [17]): 5 | Corn plant response rating (corn (Zea mays); [18]): 5 | Corn plant response rating (corn (Zea mays); [19]): 0 | Foxtail, Giant plant response rating [3, 12]: 35 | Plant response rating, Foxtail, Giant [3, 13]: 75 | Plant response rating, Foxtail, Giant [3, 14]: 90 | Plant response rating, Foxtail, Giant [3, 15]: 65 | Plant response rating, Foxtail, Giant [3, 16]: 85 | Plant response rating, Foxtail, Giant [3, 17]: 85 | Foxtail, Giant plant response rating [3, 18]: 95 | Foxtail, Giant plant response rating [3, 19]: 60 | Johnsongrass plant response rating [4, 12]: 5 | Plant response rating, Johnsongrass [4, 13]: 10 | Plant response rating, Johnsongrass [4, 14]: 10 | Plant response rating, Johnsongrass [4, 15]: 10 | Plant response rating, Johnsongrass [4, 16]: 35 | Plant response rating, Johnsongrass [4, 17]: 40 | Johnsongrass plant response rating [4, 18]: 30 | Johnsongrass plant response rating [4, 19]: 5 | Blackgrass plant response rating [5, 12]: 5 | Plant response rating, Blackgrass [5, 13]: 35 | Plant response rating, Blackgrass [5, 14]: 50 | Plant response rating, Blackgrass [5, 15]: 20 | Plant response rating, Blackgrass [5, 16]: 50 | Plant response rating, Blackgrass [5, 17]: 60 | Blackgrass plant response rating [5, 18]: 85 | Blackgrass plant response rating [5, 19]: 10 | Barnyardgrass plant response rating [6, 12]: 20 | Plant response rating, Barnyardgrass [6, 13]: 30 | Plant response rating, Barnyardgrass [6, 14]: 40 | Plant response rating, Barnyardgrass [6, 15]: 10 | Plant response rating, Barnyardgrass [6, 16]: 15 | Plant response rating, Barnyardgrass [6, 17]: 65 | Barnyardgrass plant response rating [6, 18]: 85 | Barnyardgrass plant response rating [6, 19]: 25 | Nutsedge, Yellow plant response rating [7, 12]: 85 | Plant response rating, Nutsedge, Yellow [7, 13]: 80 | Plant response rating, Nutsedge, Yellow [7, 14]: 85 | Plant response rating, Nutsedge, Yellow [7, 15]: 25 | Plant response rating, Nutsedge, Yellow [7, 16]: 45 | Plant response rating, Nutsedge, Yellow [7, 17]: 90 | Nutsedge, Yellow plant response rating [7, 18]: 90 | Nutsedge, Yellow plant response rating [7, 19]: 80 | Crabgrass, Large plant response rating [8, 12]: 20 | Plant response rating, Crabgrass, Large [8, 13]: 30 | Plant response rating, Crabgrass, Large [8, 14]: 35 | Plant response rating, Crabgrass, Large [8, 15]: 25 | Plant response rating, Crabgrass, Large [8, 16]: 25 | Plant response rating, Crabgrass, Large [8, 17]: 20 | Crabgrass, Large plant response rating [8, 18]: 30 | Crabgrass, Large plant response rating [8, 19]: 25 | Soybean plant response rating (soybean (Glycine max); [12]): 0 | Plant response rating, Soybean (soybean (Glycine max); [13]): 5 | Plant response rating, Soybean (soybean (Glycine max); [14]): 5 | Plant response rating, Soybean (soybean (Glycine max); [15]): 0 | Plant response rating, Soybean (soybean (Glycine max); [16]): 0 | Plant response rating, Soybean (soybean (Glycine max); [17]): 5 | Soybean plant response rating (soybean (Glycine max); [18]): 0 | Soybean plant response rating (soybean (Glycine max); [19]): 0 | Ryegrass, Italian plant response rating [9, 12]: 50 | Plant response rating, Ryegrass, Italian [9, 13]: 85 | Plant response rating, Ryegrass, Italian [9, 14]: 85 | Plant response rating, Ryegrass, Italian [9, 15]: 20 | Plant response rating, Ryegrass, Italian [9, 16]: 90 | Plant response rating, Ryegrass, Italian [9, 17]: 90 | Ryegrass, Italian plant response rating [9, 18]: 90 | Ryegrass, Italian plant response rating [9, 19]: 60 | Wheat plant response rating [10, 12]: 0 | Plant response rating, Wheat [10, 13]: 0 | Plant response rating, Wheat [10, 14]: 0 | Plant response rating, Wheat [10, 15]: 0 | Plant response rating, Wheat [10, 16]: 0 | Plant response rating, Wheat [10, 17]: 0 | Wheat plant response rating [10, 18]: 0 | Wheat plant response rating [10, 19]: 0 | Plant response rating, Waterhemp_RES2 ([11]; 31 g ai/ha, visual, scale 0 no effect to 100 complete control): 20 | Plant response rating, Waterhemp_RES2 ([11]; 62 g ai/ha, scale 0 to 100 (0 no effect, 100 complete control)): 15 | Plant response rating, Waterhemp_RES2 ([11]; 125 g ai/ha, scale 0 to 100 (0 no effect, 100 complete control)): 15 | Plant response rating, Waterhemp_RES2 ([11]; 250 g ai/ha, scale 0 to 100 (0 no effect, 100 complete control)): 55
